Assay results from ChEMBL document CHEMBL4033727, “Design, synthesis, in silico and in vitro evaluation of thiophene derivatives: A potent tyrosine phosphatase 1B inhibitor and anticancer activity” (Bioorg Med Chem Lett, 2017).

Columns and labels:
HepG2 = assay: Anticancer activity against human HepG2 cells incubated for 24 hrs by MTT assay; format: functional, cell-based; details: HepG2, 24 h
[1] = target: T1, Tyrosine-protein phosphatase non-receptor type 1 (Homo sapiens, UniProt P18031); assay: Inhibition of recombinant PTP1B (unknown origin) using pNPP substrate
T1 sequence (P18031 whole entry): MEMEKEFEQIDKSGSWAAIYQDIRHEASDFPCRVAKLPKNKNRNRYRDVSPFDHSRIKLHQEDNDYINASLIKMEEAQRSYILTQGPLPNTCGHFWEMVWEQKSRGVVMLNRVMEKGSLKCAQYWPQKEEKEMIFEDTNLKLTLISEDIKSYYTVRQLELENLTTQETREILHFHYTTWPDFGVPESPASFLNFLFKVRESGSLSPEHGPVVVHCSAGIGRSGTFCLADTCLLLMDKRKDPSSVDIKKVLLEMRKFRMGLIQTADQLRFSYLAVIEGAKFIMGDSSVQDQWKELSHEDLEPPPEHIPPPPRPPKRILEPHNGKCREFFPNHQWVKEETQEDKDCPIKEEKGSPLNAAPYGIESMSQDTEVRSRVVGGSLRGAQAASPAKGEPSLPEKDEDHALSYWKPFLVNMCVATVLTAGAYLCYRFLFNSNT

HeLa = assay: Anticancer activity against human HeLa cells incubated for 24 hrs by MTT assay; format: functional, cell-based
MCF7 = assay: Anticancer activity against human MCF7 cells incubated for 24 hrs by MTT assay; format: functional, cell-based; details: MCF7, 24 h
K562 = assay: Anticancer activity against human K562 cells incubated for 24 hrs by MTT assay; format: functional, cell-based; details: K562, 24 h
MDA-MB-231 = assay: Anticancer activity against human MDA-MB-231 cells incubated for 24 hrs by MTT assay; format: functional, cell-based; details: MDA-MB-231, 24 h
HEK293 = assay: Cytotoxicity activity against human HEK293 cells incubated for 24 hrs by MTT assay; format: cell-based; details: HEK293, 24 h
[2] = Stability in various solvents up to 96 hrs at different temperatures; format: physicochemical

IC50 (HepG2) [µM] | IC50 [1] [µM] | IC50 (HeLa) [µM] | IC50 (MCF7) [µM] | IC50 (K562) [µM] | IC50 (MDA-MB-231) [µM] | Stability [2] | SMILES | IC50 (HEK293) [µM]
22.5 | 12.5 |  | 9.54 |  | 28.5 |  | COC(=O)c1scc(-c2ccc(NC(=O)c3ccc(C#N)nc3)cc2)c1OC | 
10.3 | 12.3 | 16.2 | 10.3 | 8.25 | 10.3 |  | COC(=O)c1scc(-c2ccc(NC(=O)c3ccc(F)c(Cl)n3)cc2)c1OC | 
16.5 | 14.5 | 12.7 | 12.2 | 14.7 | 8.24 |  | COC(=O)c1scc(-c2ccc(NC(=O)c3cccc(I)c3)cc2)c1OC | 42.7
 | 20.6 |  | 22.5 | 35.6 | 16.5 |  | COC(=O)c1scc(-c2ccc(NC(=O)c3cc(I)ccc3F)cc2)c1OC | 45.2
15.3 | 24.3 | > 50 | 18.6 |  | > 50 |  | COC(=O)c1scc(-c2ccc(NC(=O)c3cccs3)cc2)c1OC | > 50
> 50 | 22.3 | 24.4 | 5.25 | 18.2 | 15.3 |  | COC(=O)c1scc(-c2ccc(NC(=O)c3ccc(OC)nc3)cc2)c1OC | > 50
28.2 | 16.5 | 16.2 | 22.4 | 9.25 | 19.6 |  | COC(=O)c1scc(-c2ccc(NC(=O)c3ccc(C(F)(F)F)cc3Br)cc2)c1OC | > 50
10.3 | 11.3 | > 50 | 19.2 | 24.2 | 8.25 |  | COC(=O)c1scc(-c2ccc(NC(=O)c3ccccn3)cc2)c1OC | 
9.53 | 11.2 | 18.3 | 5.46 | 12.6 | 8.36 |  | COC(=O)c1scc(-c2ccc(NC(=O)c3ncc(Cl)cc3Br)cc2)c1OC | > 50

The remaining lines, values behind:

SMILES | IC50 (HepG2) [µM] | IC50 [1] [µM] | IC50 (HeLa) [µM] | IC50 (MCF7) [µM] | IC50 (K562) [µM] | IC50 (MDA-MB-231) [µM] | Stability [2] | IC50 (HEK293) [µM]
COC(=O)c1scc(-c2ccc(NC(=O)c3ccc(C(F)(F)F)nc3)cc2)c1OC | 23.3 | 7.29 | 23.5 | 1.47 | 12.5 | 7.25 |  | 
COC(=O)c1scc(-c2ccc(NC(=O)c3ccc4ccccc4c3)cc2)c1OC | 19.5 | 5.25 | 18.2 | 0.09 | 10.2 | 5.25 | Stable | 
COC(=O)c1scc(-c2ccc(NC(=O)c3cccc(C(F)(F)F)c3)cc2)c1OC | 32.5 | 12.3 | 19.3 | 26.2 | 6.13 | 24.6 |  | 
COC(=O)c1scc(-c2ccc(NC(=O)c3ccc(C(F)(F)F)cc3)cc2)c1OC | 24.6 | 14.8 | 14.4 | 24.6 | 9.26 | 18.3 |  | 48.3
COC(=O)c1scc(-c2ccc(NC(=O)c3cccc(OC(F)(F)F)c3)cc2)c1OC | 0.72 | 6.37 | 16.6 | 2.22 | 18.2 | 7.54 |  | 
COC(=O)c1scc(-c2ccc(NC(=O)Cc3c(Cl)cccc3Cl)cc2)c1OC | 13.5 | 16.3 |  | 12.2 | 9.56 | 14.2 |  | 
COc1cccc2c1C(=O)c1c(O)c3c(c(O)c1C2=O)C[C@@](O)(C(=O)CO)C[C@@H]3O[C@H]1C[C@H](N)[C@H](O)[C@H](C)O1 [DOXORUBICIN] |  |  | 0.37 | 0.41 | 0.07 | 0.6 |  | 
